Measured values taken from US5824700A, “Ortho-quinone derivatives novel synthesis therefor and their use in the inhibition of neoplastic cell growth” (Wisconsin Alumni Research Foundation, priority 1996, dated 1998).
Like-named read-outs stand apart in the source and are kept apart here. Values belong to the compound of their own block, whether it stands above or below them.

Legend:
HT29 = experiment: Colony formation / cell survival assay, HT29 colon cancer cells; assay type: cell-based, human; conditions: for effect on ability of HT29 cells to reproduce / IC50: FIG. 1; for effect on ability of HT29 cells to reproduce: β-lapachone at approximately 10 μM; for IC50: HT-29, HT29, 4 h exposure, read-out: ED50 (the source's name)
Procedure: (§1) The control flasks are treated with DMSO only. […] The remaining flasks are left untouched.
(§2) The cells are monitored for colony formation. […] The plating efficiency for each dish is then calculated.
(§3) The cell lines HT29 and BE are both human colon cancer cell lines which are used to test the effectiveness of a given agent against cancer cell growth and proliferation. […] The HT29 and BE cell cultures were prepared and tested according to the protocol given above.

BE = experiment: Colony formation / cell survival assay, BE colon cancer cells; assay type: cell-based, human; conditions: for effect on ability of BE cells to reproduce / IC50: FIG. 2; for effect on ability of BE cells to reproduce: β-lapachone at approximately 10 μM; for viability at 2 µM / viability at 10 µM / viability at 20 µM / viability at 100 µM / IC50: Homo sapiens; for viability at 2 µM / viability at 10 µM / viability at 20 µM / viability at 100 µM: 4 h, read-out: Fraction of Cell Survival; for IC50: BE, 4 h exposure, read-out: ED50 (the source's name)
Procedure: as §1, §2, §3

A549 = experiment: Colony formation / cell survival assay, A549 lung cancer cells; assay type: cell-based; conditions: Homo sapiens, A549, 4 h; for IC50: A549, 4 h exposure, read-out: ED50 (the source's name)
Procedure: as §1, §2
The compounds tested were β-lapachone, 3-hydroxy-β-lapachone, 3,3-DINOR-dunnione (designated "Drug A" in the figures), 3-NOR-dunnione (designated "Drug B" in the figures) and dunnione itself (designated "Drug C" in the figures). A legend for the figures is provided below. The cell lines were cultured and the compounds evaluated according to the standard protocol described above.

MCF7 = experiment: Colony formation / cell survival assay, MCF7 breast cancer cells; conditions: Homo sapiens, MCF7, 4 h
Procedure: 10 standard culture flasks for each drug to be tested are plated with 5×10^5 cells in 5 mL of media and allowed to incubate for 16-24 hours at 37° C.
Fresh stocks of the compounds to be evaluated are prepared in sterile DMSO. For each drug, two of the ten culture flasks prepared on Day 1 are used as controls. The control flasks are treated with DMSO only. […] The remaining flasks are left untouched. The cells are incubated for 4 hours at 37° C.
After 4 hours the control flasks are counted (2 counts for each flask) and the cells per mL calculated based on the average of the control counts. The cells are then replated into six 60 mm dishes for each flask from dilutions based on the cells/mL of the control. (In the various test runs, cell concentrations ranged from approximately 50 to approximately 800 cells per mL.) Day 15-20:
The cells are monitored for colony formation. […] The plating efficiency for each dish is then calculated. The plating efficiencies of the six dishes for each flask are averaged and the standard deviation is calculated. The fraction of cell survival at each concentration is determined based on the controls and plotted as log fraction of cell survival±standard deviation versus the dose of the compound.
In the same fashion as the above tests, several lapachone and dunnione derivatives were evaluated for their efficacy in inhibiting the proliferation of breast cancer cells. In this instance, the cancer cell line utilized was MCF7.

Topoisomerase II = experiment: Topoisomerase II-mediated DNA cleavage (electrophoresis); assay type: biochemical, mammalian; conditions: gels of FIGS. 9A and 9B
Procedure: Analogous experiments to assay the ability of several of the compounds described herein to induce Topoisomerase II (Topo II)-mediated DNA cleavage were also performed. The results of one such experiment are depicted in the electrophoretegram of FIGS. 9A and 9B. Here, DNA was incubated in the presence of Topo II and several different compounds described herein.
A legend for the compounds which were tested in FIGS. 9A and 9B is as follows: [drawing 25] Lane 1: R=H (β-lapachone) Lane 2: R=OH
In the far left-hand lane of […], DNA alone is shown. Moving to the right, the next lane contains DNA and Topo II (mammalian). Lanes 1-9 of FIGS. 9A and 9B contain a series of concentrations of drugs (see Legend, above) in the presence of DNA and Topo II. Each set of lanes for each drug spans 3 orders of magnitude in concentration (0.1, 1, 10, and 100 μM). […] However, Lanes 1-9, which contain DNA, Topo II, and a drug according to the present invention, show extensive DNA cleavage.

[1] = system: human prostate cancer cell line PC-3; experiment: IC50 determination (DNA amount and anchorage-dependent colony formation), prostate cancer PC-3; assay type: cell-based; conditions: PC-3, 24 hours exposure
Procedure: (§4) Table 15 lists the IC50 determinations of Drugs B, C, and D against the human prostate cancer cell line PC-3 and the human breast cancer cell line MCF7. IC50 calculations for each cell line were determined by DNA amount and anchorage-dependent colony formation (CF) as described elsewhere. (See Planchon et al. Cancer Res. 55, 3706 (1995), incorporated herein by reference.) In short, IC50 calculations for each cell line were determined by DNA amount and anchorage-dependent colony formation (CF) assays. For the CF assay, cells were seeded at 500 viable cells/well in 6-well plates and incubated overnight, then treated with equal volumes of media containing β-lapachone at final concentrations ranging from 0.005 to 50 μM in half-log increments (controls were treated with 0.25% DMSO, equivalent to the highest dose of β-lapachone used) for 4 hours or for continuous 12 hour exposures. Plates (3 wells/condition) were stained with crystal violet, and colonies of >50 normal-appearing cells were enumerated. IC50 values for various cells were calculated using drug doses with numbers of colonies surrounding 50% of control. For DNA assays, plates were harvested for IC50 determinations 8 days after treatment using a CytoFluor 2350 fluorescence measurement system (Millipore). Six-well samplings were included in the calculation of DNA fluor units for each dose. A graph of β-lapachone dose versus percentage control DNA in fluor units was used to calculate each IC50. The cells were exposed for 24 hours to the tricyclic naphthoquinones. All experiments were repeated at least twice, each in duplicate. PC-3 is an androgen-independent prostate cancer cell line.

[2] = system: human breast cancer cell line MCF7; experiment: IC50 determination (DNA amount and anchorage-dependent colony formation), breast cancer MCF7; assay type: cell-based; conditions: MCF7, 24 hours exposure
Procedure: as §4

[3] = Homo sapiens, HT-29, 4 h, read-out: Fraction of Cell Survival
[4] = read-out: Fraction of Cell Survival
[5] = read-out: ED50, MCF7, 4 h exposure, FIG. 6
[6] = read-out: Fraction of Cell Survival, A549, FIG. 4, 1 μM, 4 h
[7] = read-out: Fraction of Cell Survival, A549, FIG. 4, 5 μM, 4 h
[8] = read-out: Fraction of Cell Survival, A549, FIG. 4, 10 μM, 4 h
[9] = read-out: Fraction of Cell Survival, A549, FIG. 4, 50 μM, 4 h
[10] = read-out: ED50, MCF7, 4 h exposure, FIG. 7
[11] = read-out: Fraction of Cell Survival, MCF7, FIG. 7, 1 μM, 4 h
[12] = read-out: Fraction of Cell Survival, MCF7, FIG. 7, 5 μM, 4 h
[13] = read-out: Fraction of Cell Survival, MCF7, FIG. 7, 10 μM, 4 h
[14] = read-out: Fraction of Cell Survival, MCF7, FIG. 7, 50 μM, 4 h
[15] = read-out: Fraction of Cell Survival, A549, FIG. 5, 1 μM, 4 h
[16] = read-out: Fraction of Cell Survival, A549, FIG. 5, 5 μM, 4 h
[17] = read-out: Fraction of Cell Survival, A549, FIG. 5, 10 μM, 4 h
[18] = read-out: Fraction of Cell Survival, A549, FIG. 5, 50 μM, 4 h
[19] = read-out: ED50, MCF7, 4 h exposure, FIG. 8
[20] = read-out: Fraction of Cell Survival, MCF7, FIG. 8, 1 μM, 4 h
[21] = read-out: Fraction of Cell Survival, MCF7, FIG. 8, 5 μM, 4 h
[22] = read-out: Fraction of Cell Survival, MCF7, FIG. 8, 10 μM, 4 h
[23] = read-out: Fraction of Cell Survival, MCF7, FIG. 8, 50 μM, 4 h

SMILES: CC1(C)OC2=C(CC1O)C(=O)C(=O)c1ccccc12 (stereo not drawn) [3-hydroxy-β-lapachone]
effect on ability of HT29 cells to reproduce (HT29): significantly limits the reproductive ability of these cancer cell lines | viability at 2 µM (HT29; [3]): 152% | viability at 10 µM (HT29; [3]): 119% | viability at 20 µM (HT29; [3]): 2.32% | viability at 100 µM (HT29; [3]): 0% | IC50 (HT29; Homo sapiens): 15.4 µM | effect on ability of BE cells to reproduce (BE): significantly limits the reproductive ability of these cancer cell lines | viability at 2 µM (BE): 92.9% | viability at 10 µM (BE): 39.2% | viability at 20 µM (BE): 1.02% | viability at 100 µM (BE): 0% | IC50 (BE): 0.6 µM | IC50 (A549; FIG. 3): 18 µM | viability at 1 µM (A549; [4]): 304% | viability at 5 µM (A549; [4]): 239% | viability at 10 µM (A549; [4]): 153% | viability at 50 µM (A549; [4]): 0% | IC50 (MCF7; [5]): 7700 nM | viability at 1 µM (MCF7; [4]): 106% | viability at 5 µM (MCF7; [4]): 68% | viability at 10 µM (MCF7; [4]): 0% | viability at 50 µM (MCF7; [4]): 0.32%

SMILES: CC1CC2=C(O1)c1ccccc1C(=O)C2=O (centres unmarked) [Drug A]
IC50 (A549; FIG. 4): 6 µM | viability at 1 µM (A549; [6]): 111% | viability at 5 µM (A549; [7]): 121% | viability at 10 µM (A549; [8]): 1.72% | viability at 50 µM (A549; [9]): 0.23% | IC50 (MCF7; [10]): 1600 nM | viability at 1 µM (MCF7; [11]): 85.4% | viability at 5 µM (MCF7; [12]): 0.36% | viability at 10 µM (MCF7; [13]): 0.18% | viability at 50 µM (MCF7; [14]): 0.18%

SMILES: CC1OC2=C(C(=O)C(=O)c3ccccc32)C1C (centres unmarked) [Drug B, 2,3-dimethyl-2,3,4,5-dihydro-naphtho (2,3-b)dihydrofuran-6,7-dione]
IC50 (A549; FIG. 5): 5.6 µM | viability at 1 µM (A549; [15]): 89.7% | viability at 5 µM (A549; [16]): 81.9% | viability at 10 µM (A549; [17]): 0.24% | viability at 50 µM (A549; [18]): 0% | IC50 [1]: 700 nM | IC50 [2]: 500 nM | IC50 (MCF7; [19]): 1400 nM | viability at 1 µM (MCF7; [20]): 8.88% | viability at 5 µM (MCF7; [21]): 0.32% | viability at 10 µM (MCF7; [22]): 0.16% | viability at 50 µM (MCF7; [23]): 1.54%

SMILES: CC1OC2=C(C(=O)C(=O)c3ccccc32)C1(C)C (centres unmarked) [Drug C, 2,3,3-trimethyl-2,3,4,5-tetrahydro-naphtho(2,3-b)dihydrofuran-6,7-dione]
IC50 (A549; FIG. 5): 4.3 µM | viability at 1 µM (A549; [15]): 110% | viability at 5 µM (A549; [16]): 40% | viability at 10 µM (A549; [17]): 0% | viability at 50 µM (A549; [18]): 0% | IC50 [1]: 600 nM | IC50 [2]: 700 nM | intracellular target (in words) (Topoisomerase II): Topo II is an intracellular target | IC50 (MCF7; [19]): 1400 nM | viability at 1 µM (MCF7; [20]): 55.8% | viability at 5 µM (MCF7; [21]): 0.65% | viability at 10 µM (MCF7; [22]): 0.32% | viability at 50 µM (MCF7; [23]): 0.65%

Now from value to compound, other results behind:

intracellular target (in words) (Topoisomerase II): Topo II is an intracellular target
SMILES: CC1(C)CCC2=C(O1)c1ccccc1C(=O)C2=O [β-lapachone, 7,8-dihydro-2,2-dimethyl-2H-naphtho(2,3-b)dihydropyran-7,8-dione, reference compound]
effect on ability of HT29 cells to reproduce (HT29): significantly impacts upon the ability of the HT29 and BE cells to reproduce | viability at 1 µM (HT29; [3]): 96.7% | viability at 5 µM (HT29; [3]): 49% | viability at 10 µM (HT29; [3]): 0% | viability at 50 µM (HT29; [3]): 0% | IC50 (HT29; Homo sapiens): 4.8 µM | effect on ability of BE cells to reproduce (BE): significantly impacts upon the ability of the HT29 and BE cells to reproduce | viability at 2 µM (BE): 1.17% | viability at 10 µM (BE): 15.8% | viability at 20 µM (BE): 4.39% | viability at 100 µM (BE): 0% | IC50 (BE): 8 µM | IC50 (A549; FIG. 3): 6.1 µM | IC50 (A549; FIG. 4): 5.8 µM | viability at 1 µM (A549; read-out: Fraction of Cell Survival, A549, FIG. 3, 1 μM, 4 h): 265% | viability at 5 µM (A549; read-out: Fraction of Cell Survival, A549, FIG. 3, 5 μM, 4 h): 158% | viability at 10 µM (A549; read-out: Fraction of Cell Survival, A549, FIG. 3, 10 μM, 4 h): 0% | viability at 50 µM (A549; read-out: Fraction of Cell Survival, A549, FIG. 3, 50 μM, 4 h): 17.7% | viability at 1 µM (A549; [6]): 85.5% | viability at 5 µM (A549; [7]): 89.7% | viability at 10 µM (A549; [8]): 0.69% | viability at 50 µM (A549; [9]): 0% | IC50 (MCF7; [5]): 9800 nM | IC50 (MCF7; [10]): 1600 nM | viability at 1 µM (MCF7; read-out: Fraction of Cell Survival, MCF7, FIG. 6, 1 μM, 4 h): 150% | viability at 5 µM (MCF7; read-out: Fraction of Cell Survival, MCF7, FIG. 6, 5 μM, 4 h): 0% | viability at 10 µM (MCF7; read-out: Fraction of Cell Survival, MCF7, FIG. 6, 10 μM, 4 h): 0% | viability at 50 µM (MCF7; read-out: Fraction of Cell Survival, MCF7, FIG. 6, 50 μM, 4 h): 0.32% | viability at 1 µM (MCF7; [11]): 92% | viability at 5 µM (MCF7; [12]): 0.36% | viability at 10 µM (MCF7; [13]): 0.18% | viability at 50 µM (MCF7; [14]): 0.09%

IC50 [1]: 900 nM | IC50 [2]: 700 nM
SMILES: Cc1cc2c(o1)-c1ccccc1C(=O)C2=O [Drug D]
